Reference: ChEMBL document CHEMBL1201862, “PubChem BioAssay data set” (2004)
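Tested at 5 concentrations; 48 h exposure; 96-well plates; endpoints linearly interpolated, else capped at highest concentration. At the GI50, growth is halved.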 Activity calls are given as the source filed them. Rule as the data show it: active = GI50 up to about 1.1 µM and inactive = higher.

Assays:
Test in all cases: inhibition of tumour cell growth, NCI panel, 48 h
KM12 = test system: KM12
A498 = test system: A498
NCI-H23 = test system: NCI-H23
SF-268 = test system: SF-268
NCI-H460 = test system: NCI-H460
HCT-116 = test system: HCT-116
K562 = test system: K562
NCI-H226 = test system: NCI-H226
COLO 205 = test system: COLO 205
SN12C = test system: SN12C
M14 = test system: M14
SW-620 = test system: SW-620
CCRF-CEM = test system: CCRF-CEM
NCI/ADR-RES = test system: NCI/ADR-RES
SK-MEL-28 = test system: SK-MEL-28
786-0 = test system: 786-0
BT-549 = test system: BT-549
UACC-62 = test system: UACC-62
CAKI-1 = test system: CAKI-1

Row | Compound | GI50 (KM12) | GI50 (A498) | GI50 (NCI-H23) | GI50 (SF-268) | GI50 (NCI-H460) | GI50 (HCT-116) | GI50 (K562) | GI50 (NCI-H226) | GI50 (COLO 205) | GI50 (SN12C) | GI50 (M14) | GI50 (SW-620) | GI50 (CCRF-CEM) | GI50 (NCI/ADR-RES) | GI50 (SK-MEL-28) | GI50 (786-0) | GI50 (BT-549) | GI50 (UACC-62) | GI50 (CAKI-1)
1 | CC(=O)Nc1nnc(S(C)(=O)=O)s1 | > 100 µM (inactive) | > 100 µM (inactive) | > 100 µM (inactive) | > 100 µM (inactive) | > 100 µM (inactive) | > 100 µM (inactive) | > 100 µM (inactive) | > 100 µM (inactive) | > 100 µM (inactive) | > 100 µM (inactive) | > 100 µM (inactive) | > 100 µM (inactive) | > 100 µM (inactive) | > 100 µM (inactive) | > 100 µM (inactive) | > 100 µM (inactive) | > 100 µM (inactive) | – | –
2 | Cc1nc(C)c(N2CCN(S(=O)(=O)N(Cc3ccccc3)Cc3ccccc3)CC2)c(O)n1 | > 100 µM (inactive) | > 51.9 µM (inactive) | 14.3 µM (inactive) | 6.85 µM (inactive) | > 46.9 µM (inactive) | 53 µM (inactive) | > 100 µM (inactive) | 0.279 µM (active) | > 100 µM (inactive) | > 100 µM (inactive) | > 100 µM (inactive) | > 100 µM (inactive) | > 100 µM (inactive) | > 61.4 µM (inactive) | > 100 µM (inactive) | 6.64 µM (inactive) | > 57.4 µM (inactive) | 5.12 µM (inactive) | –
3 | O=C(c1ccc(Cl)cc1)N(C(=O)N1CCCCC1)c1ccccc1 | > 100 µM (inactive) | > 100 µM (inactive) | 85.5 µM (inactive) | > 100 µM (inactive) | – | > 100 µM (inactive) | 31 µM (inactive) | > 100 µM (inactive) | 85.9 µM (inactive) | > 100 µM (inactive) | > 100 µM (inactive) | > 100 µM (inactive) | 23.7 µM (inactive) | 66.5 µM (inactive) | > 100 µM (inactive) | > 100 µM (inactive) | 48.3 µM (inactive) | > 100 µM (inactive) | > 100 µM (inactive)
4 | O=C1N2CCc3c([nH]c4ccccc34)C23CC2CCCC12S3 (centres undefined) | 25.4 µM (inactive) | 33 µM (inactive) | 20.1 µM (inactive) | 36.1 µM (inactive) | – | 20.6 µM (inactive) | > 50 µM (inactive) | > 50 µM (inactive) | 26.7 µM (inactive) | 20.6 µM (inactive) | > 50 µM (inactive) | > 50 µM (inactive) | – | 10.7 µM (inactive) | 45.3 µM (inactive) | 33.7 µM (inactive) | 21.7 µM (inactive) | 36.7 µM (inactive) | > 50 µM (inactive)
5 | CN(C)CCNc1c([N+](=O)[O-])sc2ccc(Cl)cc12 | > 100 µM (inactive) | 23.3 µM (inactive) | 23.2 µM (inactive) | 18.3 µM (inactive) | 5.38 µM (inactive) | – | 7.52 µM (inactive) | 15.8 µM (inactive) | 8.75 µM (inactive) | 7.66 µM (inactive) | > 100 µM (inactive) | 3.77 µM (inactive) | 4.36 µM (inactive) | 11.1 µM (inactive) | > 100 µM (inactive) | 12.2 µM (inactive) | 32.3 µM (inactive) | 14 µM (inactive) | –
6 | CC(C)OP(=O)(OC(C)C)C(C(F)(F)F)C(F)(F)F | > 100 µM (inactive) | – | > 100 µM (inactive) | > 100 µM (inactive) | – | > 100 µM (inactive) | > 100 µM (inactive) | > 100 µM (inactive) | > 100 µM (inactive) | > 100 µM (inactive) | > 100 µM (inactive) | > 100 µM (inactive) | > 100 µM (inactive) | > 100 µM (inactive) | > 100 µM (inactive) | > 100 µM (inactive) | > 100 µM (inactive) | > 100 µM (inactive) | > 100 µM (inactive)
7 | O=c1[nH]ncc2[nH]c3c(c12)CCCc1ccccc1-3 | 37.4 µM (inactive) | 27.6 µM (inactive) | 40.6 µM (inactive) | 23.6 µM (inactive) | 29.7 µM (inactive) | 27.4 µM (inactive) | 12.9 µM (inactive) | 38.7 µM (inactive) | 20.5 µM (inactive) | 63.1 µM (inactive) | 46.6 µM (inactive) | 43.2 µM (inactive) | 39.9 µM (inactive) | 37.9 µM (inactive) | – | 33 µM (inactive) | 32.9 µM (inactive) | 23.7 µM (inactive) | 35.2 µM (inactive)
8 | Cc1cc(N(CCC#N)CCC#N)ccc1C(/N=N/c1ccc([N+](=O)[O-])cc1)=N\NC(=O)c1ccccc1 | 40.8 µM (inactive) | 25.9 µM (inactive) | 30.7 µM (inactive) | 32.3 µM (inactive) | 37.2 µM (inactive) | 31.8 µM (inactive) | 22.9 µM (inactive) | 39.1 µM (inactive) | 35.2 µM (inactive) | 43.3 µM (inactive) | 86.9 µM (inactive) | – | 41.4 µM (inactive) | 51.5 µM (inactive) | – | 47.9 µM (inactive) | 37.5 µM (inactive) | 31 µM (inactive) | 72.1 µM (inactive)
